Patent publication US8710180B2, “VEGF-specific capture agents, compositions, and methods of using and making” (Indi Molecular, Inc., priority 2011, dated 2014)
Several values for one entry are separate records, joined by “and”; a condition that tells them apart may be missing. Identical values can stand only once. Like-named read-outs stand apart in the source and are kept apart here. One block for each molecule: values may come before it. Where a SMILES comes first, the peptide text is derived from it. Bridges are numbered along the chain shown (N, C = ends). Roman numbers before positions name the chains, in order. Triazole bridges read from a SMILES are 1,4-linked. [ ]: non-standard residue; d: D form. Lys(N3) = [N-]=[N+]=NCCCC[C@H](N)C(=O)O; Az4 = C-terminal azide group; dPra = C#CC[C@@H](N)C(=O)O; code X = not defined here

Experiments:
[1] = plasma protein binding by equilibrium dialysis; format: in vitro ADME; conditions: 10 μM, 37° C. overnight
Protocol: Equilibrium dialysis techniques were used to separate the fraction of unbound test compound from the fraction that is bound to protein.
Assays were carried out in a 96-well format in a dialysis block constructed from Teflon. The protein matrix was spiked with the test compound at 10 μM (n=2) with a final DMSO concentration of 1% (v/v). The dialysate compartment was loaded with 150 μL phosphate buffer (pH 7.5) and the sample side was loaded with equal volume of the spiked protein matrix. The dialysis plate was then sealed and incubated at 37° C. overnight (18±2 hours). After the incubation, samples were taken from each compartment, diluted with the phosphate buffer followed by addition of acetonitrile and centrifugation. The supernatants were then used for HPLC-MS/MS analysis. A control sample (n=2) was prepared from the spiked protein matrix in the same manner as the assay samples (without dialysis). This control sample served as the basis for the recovery determination. Samples were analyzed by HPLC-MS/MS using selected reaction monitoring. The HPLC conditions consisted of a binary LC pump with autosampler, a C18 column (2×20 mm), and gradient elution. The percent bound to proteins and the recovery were calculated as follows:
[formula] […] The recovery determination served as an indicator of reliability of the calculated protein binding value.

[2] = test system: Human umbilical vein endothelial cells (HUVECs); assay: inhibition of HUVEC proliferation; format: cell-based; conditions: 48 h, read-out: IC50 (antagonist)
Protocol: HUVECs were cultured in M199 medium (pH 7.4) in 5% CO2 at 37° C. for 18 hours. Test compound and/or vehicle were incubated with cells (1.1×10^5/mL) in the presence of heparin (10 μg/mL) and 0.5% FBS at 37° C. for 48 hours. Capture agents were screened at 10, 1, 0.1, 0.01 and 0.001 μM and in duplicate. […] Subsequently, the reagent Calcein AM dye (20 μg/ml) was added for an additional 50 minute incubation period. Fluorescence intensity was read on SpectroFluor Plus plate reader.

[3] = plasma concentrations and pharmacokinetics of VEGF-PCC after a single IV or IP dose in mice, LC-MS/MS; format: in vivo, mouse; conditions: for Plasma concentration: individual animal; for C0: iv
Source text: Test article: VEGF-PCC (IN-VT-1001 Triligand) (PCC monomer) Ac-[…]-Tz4-lfrew-Tz4-eeird (SEQ ID NO: 71). The underlined region inclusive of the Cys residues is cyclized by a disulfide bond, Ac=N-terminal acetylation, and Tz4=1,4-disubstituted 1,2,3-triazole.
The LC-MS/MS system for analysis was comprised of an Agilent 1200 high performance liquid chromatography (HPLC) and a 5500 Qtrap mass spectrometer (Applied Biosystems by Life Technologies, Carlsbad, Calif.).
Concentrations of VEGF-PCC in mouse plasma were determined using a non-validated LC MS/MS assay with Angiotensin I as the internal standard following a solid phase extraction method. Individual VEGF-PCC calibration and QC standards were prepared from the respective intermediate stock solutions by addition to naïve mouse plasma. The target working range of the calibration curve was 50 to 5,000 ng/mL in plasma and the target concentrations of the QC standards were 150 to 3,750 ng/mL in plasma for VEGF-PCC.
Mice received a single IV dose of VEGF-PCC at 1 mg/kg. A summary of the plasma concentrations for individual animals is shown in Table A. Plasma pharmacokinetic parameters are listed in Table 9.
Mice received a single IP dose of VEGF-PCC at 5 mg/kg. A summary of the plasma concentrations for individual animals is shown in Table B. Plasma pharmacokinetic parameters are listed in Table 9.

[4] = target: T1, human VEGF165 binding to VEGFR2 (KDR) (Homo sapiens, UniProt P15692); assay: competitive ELISA, inhibition of VEGF165 binding to VEGFR2; conditions: concentrations tested <50 μM
T1 construct: biotin (chemical labelling, Sulfo-NHS-LC-biotin); purchased R&D Systems (partner VEGFR2-Fc only)
T1 sequence (P15692 27-191 isoform P15692-4): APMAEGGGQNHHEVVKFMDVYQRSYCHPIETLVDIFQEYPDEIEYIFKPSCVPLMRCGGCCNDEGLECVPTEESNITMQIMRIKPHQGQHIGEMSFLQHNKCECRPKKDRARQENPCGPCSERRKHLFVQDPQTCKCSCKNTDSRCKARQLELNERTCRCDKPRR
Protocol: The solutions from the tubes were then transferred to the ELISA plates and incubated for 5 minutes. […] Using an excitation wavelength of 535 nm, fluorescent emission at 595 nm was recorded by Beckman Coulter DTX880 photometer (Brea, Calif.) as a function of capture agent concentration. The titration curves were fit using a four-parameter regression curve fitting program (Origin 8.5, Northampton, Mass.). Concentrations of peptides corresponding to the midpoint absorbance of the titration curve were calculated and used as the IC50 values.

[5] = in vivo, mouse plasma, IP, 5 mg/kg
[6] = in vivo, mouse plasma, IV, 1 mg/kg

- plasma protein binding [1]: higher levels of plasma protein binding
Molecule: C=C(NC(=O)[C@@H]1CCCN1C(=O)[C@H](CCC(=O)O)NC(=O)[C@@H](C)C(C)C)C(=O)N[C@@H]1CSSCC(C(=O)N[C@@H](Cc2ccccc2)C(=O)NC(CCC(=O)O)C(=O)NC(CCCN)C(=O)N[C@@H](CC(C)C)C(=O)NC(CCCCn2cc(CC(N)C(=O)NC(Cc3ccccc3)C(=O)N[C@H](CO)C(=O)N[C@H](CCCNC(=N)N)C(=O)NC(CCCCN)C(=O)N[C@@H](C(=O)NC(CCC(=O)O)C(N)=O)C(C)O)nn2)C(=O)O)NC(=O)[C@H](CCC(=O)O)NC(=O)[C@H](Cc2c[nH]c3ccccc23)NC(=O)[C@H](CCC(=O)O)NC(=O)[C@H](Cc2c[nH]c3ccccc23)NC(=O)[C@H](CCSC)NC(=O)[C@H](C(C)C)NC(=O)[C@H](Cc2cnc[nH]2)NC(=O)C([C@@H](C)CC)NC(=O)[C@H](CC(=O)O)NC1=O (stereo partly shown) [Biligand 3]

Molecule: Cc1cc(C)c(/C=C2\C(=O)Nc3ccccc32)[nH]1 [SU5416]
- IC50 [2]: 48 nM

- AUC(0-inf) [3, 5]: 32200 ng·h/mL
- AUC(0-t) [3, 5]: 31500 ng·h/mL
- Cmax [3, 5]: 19800 ng/mL
- Tmax [3, 5]: 30 min
- AUC(0-inf) [3, 6]: 6490 ng·h/mL
- AUC(0-t) [3, 6]: 6070 ng·h/mL
- clearance [3, 6]: 2.57 mL/min/kg
- half-life [3, 6]: 35.9 min
- Vd ([3]; in vivo, mouse plasma, IV, 1 mg/kg, read-out: Vss): 0.0967 L/kg
- Plasma concentration ([3]; IP 5 mg/kg, 30 minutes postdose, listed as IN-VT-1001, 5 mg/kg): 19400 ng/mL and 20200 ng/mL and BLQ
- Plasma concentration ([3]; IP 5 mg/kg, 120 minutes postdose, listed as IN-VT-1001, 5 mg/kg): BLQ and 4730 ng/mL and 3640 ng/mL
- Plasma concentration ([3]; IP 5 mg/kg, 240 minutes postdose, listed as IN-VT-1001, 5 mg/kg): 259 ng/mL and 807 ng/mL and BLQ
- Plasma concentration ([3]; IP 5 mg/kg, 360 minutes postdose, listed as IN-VT-1001, 5 mg/kg): 390 ng/mL and BLQ (2×)
- Plasma concentration ([3]; IP 5 mg/kg, 480 minutes postdose): BLQ
- Plasma concentration ([3]; IP 5 mg/kg, 1440 minutes postdose): BLQ
- Plasma concentration ([3]; IV 1 mg/kg, 10 minutes postdose, listed as IN-VT-1001, 1 mg/kg): 7220 ng/mL and 7550 ng/mL and 6110 ng/mL
- Plasma concentration ([3]; IV 1 mg/kg, 30 minutes postdose, listed as IN-VT-1001, 1 mg/kg): 2170 ng/mL and 2210 ng/mL and 3420 ng/mL
- Plasma concentration ([3]; IV 1 mg/kg, 60 minutes postdose, listed as IN-VT-1001, 1 mg/kg): 1840 ng/mL and 2380 ng/mL and 1870 ng/mL
- Plasma concentration ([3]; IV 1 mg/kg, 120 minutes postdose, listed as IN-VT-1001, 1 mg/kg): 551 ng/mL and 400 ng/mL and 514 ng/mL
- Plasma concentration ([3]; IV 1 mg/kg, 240 minutes postdose): BLQ
- Plasma concentration ([3]; IV 1 mg/kg, 360 minutes postdose): BLQ
- Plasma concentration ([3]; IV 1 mg/kg, 1440 minutes postdose): BLQ
- Mean plasma concentration ([3]; mean, IP 5 mg/kg, 480 minutes postdose): 0.00 ng/mL
- Mean plasma concentration ([3]; mean, IP 5 mg/kg, 1440 minutes postdose): 0.00 ng/mL
- Mean plasma concentration ([3]; mean, IV 1 mg/kg, 240 minutes postdose): 0.00 ng/mL
- Mean plasma concentration ([3]; mean, IV 1 mg/kg, 360 minutes postdose): 0.00 ng/mL
- Mean plasma concentration ([3]; mean, IV 1 mg/kg, 1440 minutes postdose): 0.00 ng/mL
- AUC % Ext ([3]; mouse plasma, IP, 5 mg/kg): 2.04%
- AUC % Ext ([3]; mouse plasma, IV, 1 mg/kg): 6.49%
- bioavailability ([3]; mouse, in vivo, ip, 5 mg/kg, mouse plasma, IP, 5 mg/kg, read-out: F (relative bioavailability)): ~99%
- C0 ([3]; mouse, in vivo, 1 mg/kg, mouse plasma, IV, 1 mg/kg, read-out: C0 (back-calculated)): 19100 ng/mL
- level at 10 min ([3]; mouse, plasma, mean, IP 5 mg/kg, 10 minutes postdose, read-out: Mean plasma concentration): 16000 ng/mL
- level at 0.5 h ([3]; mouse, plasma, mean, IP 5 mg/kg, 30 minutes postdose, read-out: Mean plasma concentration): 13200 ng/mL
- level at 1 h ([3]; mouse, plasma, mean, IP 5 mg/kg, 60 minutes postdose, read-out: Mean plasma concentration): 15400 ng/mL
- level at 2 h ([3]; mouse, plasma, mean, IP 5 mg/kg, 120 minutes postdose, read-out: Mean plasma concentration): 2790 ng/mL
- level at 4 h ([3]; mouse, plasma, mean, IP 5 mg/kg, 240 minutes postdose, read-out: Mean plasma concentration): 355 ng/mL
- level at 6 h ([3]; mouse, plasma, mean, IP 5 mg/kg, 360 minutes postdose, read-out: Mean plasma concentration): 130 ng/mL
- level at 0.05 h ([3]; mouse, plasma, mean, IV 1 mg/kg, 3 minutes postdose, read-out: Mean plasma concentration): 14100 ng/mL
- level at 10 min ([3]; mouse, plasma, mean, IV 1 mg/kg, 10 minutes postdose, read-out: Mean plasma concentration): 6960 ng/mL
- level at 0.5 h ([3]; mouse, plasma, mean, IV 1 mg/kg, 30 minutes postdose, read-out: Mean plasma concentration): 2600 ng/mL
- level at 1 h ([3]; mouse, plasma, mean, IV 1 mg/kg, 60 minutes postdose, read-out: Mean plasma concentration): 2030 ng/mL
- level at 2 h ([3]; mouse, plasma, mean, IV 1 mg/kg, 120 minutes postdose, read-out: Mean plasma concentration): 488 ng/mL
Molecule: CC[C@@H](C)[C@@H](NC(=O)[C@@H](CCC(=O)O)NC(=O)[C@@H](CCC(=O)O)NC(=O)[C@H](N)Cc1cn(CCCC[C@H](NC(=O)[C@@H](Cc2c[nH]c3ccccc23)NC(=O)[C@@H](CCC(=O)O)NC(=O)[C@@H](CCCNC(=N)N)NC(=O)[C@@H](Cc2ccccc2)NC(=O)[C@@H](CC(C)C)NC(=O)[C@H](N)Cc2cn(CCCC[C@H](NC(=O)[C@H](CC(C)C)NC(=O)[C@H](CCCNC(=N)N)NC(=O)[C@H](CCC(=O)O)NC(=O)[C@H](Cc3ccccc3)NC(=O)[C@@H]3CSSC[C@H](NC(=O)[C@H](CC(N)=O)NC(=O)[C@@H]4CCCN4C(=O)[C@H](CCC(=O)O)NC(=O)[C@@H](NC(C)=O)C(C)C)C(=O)N[C@@H](CC(=O)O)C(=O)N[C@@H]([C@@H](C)CC)C(=O)N[C@@H](Cc4c[nH]cn4)C(=O)N[C@@H](C(C)C)C(=O)N[C@@H](CCSC)C(=O)N[C@@H](Cc4c[nH]c5ccccc45)C(=O)N[C@@H](CCC(=O)O)C(=O)N[C@@H](Cc4c[nH]c5ccccc45)C(=O)N[C@@H](CCC(=O)O)C(=O)N3)C(=O)O)nn2)C(=O)O)nn1)C(=O)N[C@H](CCCNC(=N)N)C(=O)N[C@H](CC(=O)O)C(N)=O [VEGF-PCC] (I: Ac-VEPNCDIHVMWEWECFERL[Lys(N3)]-OH / II: H-[dPra][dL][dF][dR][dE][dW][Lys(N3)]-OH / III: H-[dPra][dE][dE][dI][dR][dD]-NH2; disulfide I:5-I:15; triazole I:20-II:1, II:7-III:1)
- Plasma concentration ([3]; IP 5 mg/kg, 10 minutes postdose, listed as IN-VT-1001, 5 mg/kg): 17500 ng/mL and 17000 ng/mL and 13400 ng/mL
- Plasma concentration ([3]; IP 5 mg/kg, 60 minutes postdose, listed as IN-VT-1001, 5 mg/kg): 10800 ng/mL and 23900 ng/mL and 11500 ng/mL
- Plasma concentration ([3]; IV 1 mg/kg, 3 minutes postdose, listed as IN-VT-1001, 1 mg/kg): 14200 ng/mL and 16200 ng/mL and 12000 ng/mL
- C0 ([3]; mouse, in vivo, 1 mg/kg, assuming IV dose 1 mg/kg, body weight 33 g, blood volume approximately 1.7 mL, read-out: theoretical C0): ~19400 ng/mL

Molecule: X-VEPNCDIHVMWEWECFERL-Az4 ({code X}-VEPNCDIHVMWEWECFERL-Az4; cysteine pairing not given here; reading uncertain) [anchor, reference compound]
- blocking of receptor binding at the concentrations tested [4]: Neither the anchor nor Biligand 2 blocked receptor binding
